The source made the active and inactive calls. No cut-off for these calls is given here.
Key:
[1] = molecular target: T1, Peroxisome proliferator-activated receptor delta (Homo sapiens, UniProt Q03181); assay: Transactivation of GAL4-tagged human PPARdelta LBD expressed in human HepG2 cells at 100 nM to 100 uM incubated for 20 to 22 hrs by luciferase reporter gene assay; type: cell-based
T1 sequence (Q03181 whole entry): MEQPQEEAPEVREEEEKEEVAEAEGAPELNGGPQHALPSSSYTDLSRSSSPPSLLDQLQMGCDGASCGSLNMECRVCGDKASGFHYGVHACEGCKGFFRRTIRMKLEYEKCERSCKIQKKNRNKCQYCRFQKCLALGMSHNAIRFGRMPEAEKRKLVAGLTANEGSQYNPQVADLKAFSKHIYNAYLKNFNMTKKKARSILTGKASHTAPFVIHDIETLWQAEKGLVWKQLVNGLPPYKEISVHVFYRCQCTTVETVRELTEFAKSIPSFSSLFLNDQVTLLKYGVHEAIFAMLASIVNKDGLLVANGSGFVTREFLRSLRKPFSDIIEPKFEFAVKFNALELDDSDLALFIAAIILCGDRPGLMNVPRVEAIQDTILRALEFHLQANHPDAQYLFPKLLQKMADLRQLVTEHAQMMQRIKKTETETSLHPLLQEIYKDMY

[2] = molecular target: T2, Peroxisome proliferator-activated receptor alpha (Homo sapiens) (UniProt Q07869); assay: Transactivation of GAL4-tagged human PPARalpha LBD expressed in human HepG2 cells at 100 nM to 100 uM incubated for 20 to 22 hrs by luciferase reporter gene assay relative to clofibric acid; type: cell-based
T2 sequence (whole entry): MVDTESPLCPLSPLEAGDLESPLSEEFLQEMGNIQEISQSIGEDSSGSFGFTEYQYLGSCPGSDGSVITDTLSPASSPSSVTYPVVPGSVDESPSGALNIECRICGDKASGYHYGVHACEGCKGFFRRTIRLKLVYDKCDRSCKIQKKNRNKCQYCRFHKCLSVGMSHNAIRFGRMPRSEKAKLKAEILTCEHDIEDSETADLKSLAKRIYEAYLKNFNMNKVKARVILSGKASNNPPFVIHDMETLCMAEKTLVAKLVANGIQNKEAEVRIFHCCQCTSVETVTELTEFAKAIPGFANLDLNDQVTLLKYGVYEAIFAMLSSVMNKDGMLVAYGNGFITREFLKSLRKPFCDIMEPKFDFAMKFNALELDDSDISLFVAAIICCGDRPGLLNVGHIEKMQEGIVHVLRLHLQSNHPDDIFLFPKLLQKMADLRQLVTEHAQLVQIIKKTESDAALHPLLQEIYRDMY

[3] = molecular target: T3, Peroxisome proliferator-activated receptor gamma (Homo sapiens) (UniProt P37231); assay: Transactivation of GAL4-tagged human PPARgamma LBD expressed in human HepG2 cells at 100 nM to 100 uM incubated for 20 to 22 hrs by luciferase reporter gene assay relative to rosiglitazone; type: cell-based
T3 sequence (whole entry): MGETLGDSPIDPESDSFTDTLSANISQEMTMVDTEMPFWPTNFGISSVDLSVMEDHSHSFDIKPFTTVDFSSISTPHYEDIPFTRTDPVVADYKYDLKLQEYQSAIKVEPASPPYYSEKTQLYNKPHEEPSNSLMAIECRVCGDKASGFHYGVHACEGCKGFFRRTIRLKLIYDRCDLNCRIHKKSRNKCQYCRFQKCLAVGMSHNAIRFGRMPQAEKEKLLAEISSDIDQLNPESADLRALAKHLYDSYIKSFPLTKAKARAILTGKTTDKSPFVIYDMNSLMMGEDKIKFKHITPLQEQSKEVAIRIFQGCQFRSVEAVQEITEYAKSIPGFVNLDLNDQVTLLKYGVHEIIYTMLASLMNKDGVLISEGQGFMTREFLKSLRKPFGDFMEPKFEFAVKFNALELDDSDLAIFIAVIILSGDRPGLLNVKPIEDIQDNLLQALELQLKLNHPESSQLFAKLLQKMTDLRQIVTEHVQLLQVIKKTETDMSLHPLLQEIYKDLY

[4] = molecular target: T4, Peroxisome proliferator-activated receptor delta (Homo sapiens) (UniProt Q03181); assay: Transactivation of GAL4-tagged human PPARdelta LBD expressed in human HepG2 cells at 100 nM to 100 uM incubated for 20 to 22 hrs by luciferase reporter gene assay relative to L165,041; type: cell-based
T4 sequence (whole entry): T1 sequence (Q03181 whole entry)

[5] = molecular target: T5, Peroxisome proliferator-activated receptor alpha (Homo sapiens, UniProt Q07869); assay: Transactivation of GAL4-tagged human PPARalpha LBD expressed in human HepG2 cells at 100 nM to 100 uM incubated for 20 to 22 hrs by luciferase reporter gene assay; type: cell-based
T5 sequence (Q07869 whole entry): T2 sequence (whole entry)

[6] = molecular target: T2, Peroxisome proliferator-activated receptor alpha (Homo sapiens); assay: Potency index, ratio of EC50 for GL479 to EC50 for test compound for transactivation of GAL4-tagged human PPARalpha LBD expressed in human HepG2 cells incubated for 20 to 22 hrs by luciferase reporter gene assay; type: cell-based
Liver [7] = assay: Ex vivo antiinflammatory activity in Sprague-Dawley rat liver assessed as inhibition of LPS-induced PGE2 production at 1 uM incubated for 4 hrs followed by LPS addition by radioimmunoassay; type: functional, tissue-based
Cortex [8] = assay: Ex vivo antiinflammatory activity in Sprague-Dawley rat cortex assessed as inhibition of LPS-induced PGE2 production at 1 uM incubated for 4 hrs followed by LPS addition by radioimmunoassay; type: functional, tissue-based
[9] = molecular target: T6, Peroxisome proliferator-activated receptor gamma (Homo sapiens, UniProt P37231); assay: Transactivation of GAL4-tagged human PPARgamma LBD expressed in human HepG2 cells at 100 nM to 100 uM incubated for 20 to 22 hrs by luciferase reporter gene assay; type: cell-based
T6 sequence (P37231 whole entry): T3 sequence (whole entry)

[10] = molecular target: T2, Peroxisome proliferator-activated receptor alpha (Homo sapiens); assay: Agonist activity at PPARalpha in human HepG2 cells assessed as increase in CPT1A RNA expression at 100 uM incubated for 48 hrs by qRT-PCR analysis relative to control; type: cell-based
[11] = molecular target: T4, Peroxisome proliferator-activated receptor delta (Homo sapiens); assay: Agonist activity at PPARdelta in human HepG2 cells assessed as increase in PDK4 RNA expression at 100 uM incubated for 48 hrs by qRT-PCR analysis relative to control; type: cell-based
[12] = molecular target: T3, Peroxisome proliferator-activated receptor gamma (Homo sapiens); assay: Agonist activity at PPARgamma in human HepG2 cells assessed as increase in GLUT1 RNA expression at 100 uM incubated for 48 hrs by qRT-PCR analysis relative to control; type: cell-based
Liver [13] = assay: Ex vivo antiinflammatory activity in Sprague-Dawley rat liver assessed as inhibition of LPS-induced PGE2 production at 0.1 to 10 uM incubated for 4 hrs followed by LPS addition by radioimmunoassay; type: functional, tissue-based
Cortex [14] = assay: Ex vivo antiinflammatory activity in Sprague-Dawley rat cortex assessed as inhibition of LPS-induced PGE2 production at 0.1 to 10 uM incubated for 4 hrs followed by LPS addition by radioimmunoassay; type: functional, tissue-based
[15] = molecular target: T4, Peroxisome proliferator-activated receptor delta (Homo sapiens); assay: Agonist activity at PPARdelta in human HepG2 cells assessed as increase in PDK4 RNA expression at 2 uM incubated for 48 hrs by qRT-PCR analysis relative to control; type: cell-based

| EC50 [1] [nM] | Emax [2] [%] | Emax [3] [%] | Emax [4] [%] | EC50 [5] [nM] | Compound | also measured |
| --- | --- | --- | --- | --- | --- | --- |
| 4100 | 11 | 14 | 21 |  | CC(C)(Oc1ccc(CCOc2ccc(/N=N/c3ccc([N+](=O)[O-])cc3)cc2)cc1)C(=O)O |  |
| 6500 | 25 | 12 | 20 | 2600 | CC(C)(Oc1ccc(CCOc2ccc(/N=N/c3ccc(C#N)cc3)cc2)cc1)C(=O)O |  |
| 1200 | 52 | 10 | 41 | 510 | CC(C)(Oc1ccc(OCCc2ccc(/N=N/c3ccc(Cl)cc3)cc2)cc1)C(=O)O |  |
| 3100 | 60 | 12 | 23 | 380 | CC(C)(Oc1ccc(CCOc2ccc(/N=N/c3ccc(Cl)cc3)cc2)cc1)C(=O)O | Ratio EC50 [6]: 5 |
| 1800 | 35 | 8 | 24 | 2300 | CC(C)(Oc1ccc(CCOc2ccc(/N=N/c3ccc(C(F)(F)F)cc3)cc2)cc1)C(=O)O |  |
|  |  |  |  |  | CCc1ccc(CCOc2ccc(CC3SC(=O)NC3=O)cc2)nc1 (stereo not drawn) | Activity (Liver [7]): Active; Activity (Cortex [8]): Active |
| 1100 | 35 | 8 | 29 | 1900 | CC(C)(Oc1ccc(OCCc2ccc(/N=N/c3ccc(Br)cc3)cc2)cc1)C(=O)O |  |
|  |  |  |  |  | Cc1cccc(Nc2cc(Cl)nc(SCC(=O)O)n2)c1C | Activity (Liver [7]): Active; Activity (Cortex [8]): Active |
| 1400 | 32 | 10 | 23 | 2400 | COc1ccc(/N=N/c2ccc(OCCc3ccc(OC(C)(C)C(=O)O)cc3)cc2)cc1 |  |
|  | 37 | 9 | 12 | 2200 | CC(C)(Oc1ccc(OCCc2ccc(/N=N/c3ccc(C(F)(F)F)cc3)cc2)cc1)C(=O)O |  |
| 2800 | 61 | 12 | 50 | 1400 | CC(C)(Oc1ccc(OCCc2ccc(/N=N/c3ccc(C#N)cc3)cc2)cc1)C(=O)O |  |
| 3900 | 71 | 12 | 29 | 810 | CC(C)(Oc1ccc(CCOc2ccc(/N=N/c3ccc(Br)cc3)cc2)cc1)C(=O)O | Ratio EC50 [6]: 3 |
| 6400 | 56 | 13 | 39 | 2100 | CC(C)(Oc1ccc(CCOc2ccc(/N=N/c3ccccc3)cc2)cc1)C(=O)O |  |
| 2800 | 69 | 24 | 35 | 250 | CC(C)(Oc1ccc(OCCc2ccc(/N=N/c3ccccc3)cc2)cc1)C(=O)O | EC50 [9]: 6000 nM; Activity [10]: Active; Activity [11]: Active; Activity [12]: Active; Activity (Liver [13]): Active; Activity (Cortex [14]): Active |
| 210 |  |  |  |  | CCCc1c(OCCCOc2ccc(OCC(=O)O)cc2)ccc(C(C)=O)c1O | Activity [15]: Active; Activity (Liver [7]): inactive; Activity (Cortex [8]): inactive |
| 2300 | 19 | 10 | 28 |  | CC(C)(Oc1ccc(OCCc2ccc(/N=N/c3ccc([N+](=O)[O-])cc3)cc2)cc1)C(=O)O |  |
